Patent US20050222204A1, “Opioid receptor antagonists” (priority 2002, published 2005)
pIC50: −log10 of the molar value. Read-outs that look alike come from different tables or passages of the source.

How the values were obtained:
[1] = biological target: T1, human opioid receptors, Mu (MOR) (Homo sapiens, UniProt P35372); test: GTPγS functional antagonist assay (SPA), mu receptor, vs DAMGO; assay type: biochemical
T1 construct: expressed in transfected cells
Procedure: (§1) An SPA-based GTPgS assay format was developed based on previous opioid (Emmerson et al., J. Pharm Exp Ther 278,1121,1996; Homg et al., Society for Neuroscience Abstracts, 434.6, 2000) and muscarinic (DeLapp et al., JPET 289, 946, 1999) assay formats. Membranes were resuspended in 20 mM HEPES, 100 mM NaCl, 5 mM MgCl2, 1 mM DTT, and 1 mM EDTA. […] of GTPγ[35S], compound, membrane suspension (20 microgram/well), and wheat germ agglutinin coated SPA beads (1 mg/well) were added to clear bottom 96 well assay plates. GDP ([…]) was added to the membrane solution prior to addition to the assay plates. Plates were sealed and incubated for four hours at room temperature then placed in a refrigerator overnight to allow the beads to settle. […] Plates were warmed to room temperature and counted in a Wallac Microbeta scintillation counter. For antagonist assays, specific agonists were added at the following concentrations: (MOR) DAMGO 1 micromolar, (DOR) DPDPE 30 nM, (KOR) U69593 300 nM. Kb's were determined by Cheng-Prusoff equation (Cheng and Prusoff, 22,3099 1973).

[2] = biological target: T2, human opioid receptors, Kappa (KOR) (Homo sapiens, UniProt P41145); test: GTPγS functional antagonist assay (SPA), kappa receptor, vs U69593; assay type: biochemical
T2 construct: expressed in transfected cells
Procedure: as §1

[3] = biological target: T3, human opioid receptors, Delta (DOR) (Homo sapiens, UniProt P41143); test: GTPγS functional antagonist assay (SPA), delta receptor, vs DPDPE; assay type: biochemical
T3 construct: expressed in transfected cells
Procedure: as §1

[4] = Bioavailability in rat (Table 2); conditions: in vivo, read-out: Metabolis Rat (bioavailability)
[5] = biological target: T4, human Cytochrome 2D6 (CYP2D6) (Homo sapiens, UniProt P10635); test: Assay for inhibition of CYP2D6 activity (human liver microsomes, bufuralol substrate); assay type: in vitro ADME
T4 construct: from tissue; host or cells: human liver microsomes
Procedure: The reduced potential for inhibition of cytochrome P450 was discovered using a standard assay that monitors the compound's ability to inhibit Cyp2D6 a member of the cytochrome P450 family of enzymes.
Assay for Inhibition of CYP2D6 Activity
The inhibition of human Cytochrome 2D6 (CYP2D6) activity was studied using a validated high through-put screening assay. A 3 uL aliquot of an 8 mM stock solution of compound was delivered to 397 uL of pH 7.4 (50 mM) phosphate buffer resulting in an initial concentration of 60 uM. The compound dose solutions were prepared by serial dilutions to produce concentrations of […]. A 6 mM NaDPH stock solution was prepared by addition of 100 mg of NaDPH to 20 mL of pH 7.4 buffer. A 600 uL aliquot of Human liver Microsomes (HLM-20.0 mg/ml) was added to 20 ml of pH 7.4 phosphate buffer to produce a 0.6 mg/ml solution of HLM. To the HLM mixture was added 120 uL of a 10 mM bufurolol solution (CYP2D6 substrate) producing a final bufuralol concentration of 60 uM. To each assay plate was added 100 uL of the compound dose solutions, 25 uL NaDPH and 25 uL HLM/bufurolol solution. Samples were incubated at 37° C. for 10 minutes and the reaction was quenched with 25 uL of a 2% perchloric acid solution, followed by centrifugation at 3200 rpm for 30 min. The resulting supernatant was assayed for bufurolol concentrations using a Turbo Ion Spray API 150EX MS method. The calculated IC50 value represents the compound concentration that results in a 50% reduction in burfurolol consumption. Table 3 below provides a comparative data for inhibition of CyP2D6.

[6] = test system: male Long-Evans rats; test: Antiorexigenic effect: food consumption in fasted rats; assay type: in vivo, rat; conditions: oral 3 mg/kg; rats fasted 18 hours; over 1 hour, 2 hour and 4 hour periods; vs untreated control
Procedure: Compounds were tested for effects on food consumption in male Long-Evans rats which had been fasted for 18 hours prior to testing. The weight of food consumed was measured for groups of 6 rats treated with test substance and compared to the food consumed by an untreated control group of 6 animals.

T1 sequence (P35372 whole entry): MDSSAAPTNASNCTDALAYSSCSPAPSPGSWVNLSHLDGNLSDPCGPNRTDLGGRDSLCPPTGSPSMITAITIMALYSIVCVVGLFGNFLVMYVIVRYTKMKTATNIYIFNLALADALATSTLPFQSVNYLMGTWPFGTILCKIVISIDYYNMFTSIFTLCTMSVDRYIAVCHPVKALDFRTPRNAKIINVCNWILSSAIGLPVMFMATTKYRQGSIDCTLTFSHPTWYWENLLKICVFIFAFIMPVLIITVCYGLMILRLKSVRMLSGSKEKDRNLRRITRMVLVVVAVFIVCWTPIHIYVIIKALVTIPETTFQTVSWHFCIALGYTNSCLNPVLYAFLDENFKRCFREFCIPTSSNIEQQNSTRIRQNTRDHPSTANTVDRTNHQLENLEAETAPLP
T4 sequence (P10635 whole entry): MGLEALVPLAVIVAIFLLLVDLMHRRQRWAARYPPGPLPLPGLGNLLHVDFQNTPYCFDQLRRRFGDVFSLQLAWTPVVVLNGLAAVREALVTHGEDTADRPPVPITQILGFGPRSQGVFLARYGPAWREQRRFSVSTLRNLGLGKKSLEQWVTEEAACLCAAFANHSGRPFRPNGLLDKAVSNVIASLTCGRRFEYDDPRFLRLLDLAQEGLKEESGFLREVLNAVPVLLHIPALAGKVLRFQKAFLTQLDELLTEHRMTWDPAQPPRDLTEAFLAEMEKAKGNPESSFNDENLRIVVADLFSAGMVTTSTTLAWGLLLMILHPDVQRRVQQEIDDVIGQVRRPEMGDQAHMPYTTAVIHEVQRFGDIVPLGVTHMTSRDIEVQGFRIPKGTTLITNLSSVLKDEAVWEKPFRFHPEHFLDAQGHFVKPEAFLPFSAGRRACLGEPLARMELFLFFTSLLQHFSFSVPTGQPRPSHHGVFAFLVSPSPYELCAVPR
T3 sequence (P41143 whole entry): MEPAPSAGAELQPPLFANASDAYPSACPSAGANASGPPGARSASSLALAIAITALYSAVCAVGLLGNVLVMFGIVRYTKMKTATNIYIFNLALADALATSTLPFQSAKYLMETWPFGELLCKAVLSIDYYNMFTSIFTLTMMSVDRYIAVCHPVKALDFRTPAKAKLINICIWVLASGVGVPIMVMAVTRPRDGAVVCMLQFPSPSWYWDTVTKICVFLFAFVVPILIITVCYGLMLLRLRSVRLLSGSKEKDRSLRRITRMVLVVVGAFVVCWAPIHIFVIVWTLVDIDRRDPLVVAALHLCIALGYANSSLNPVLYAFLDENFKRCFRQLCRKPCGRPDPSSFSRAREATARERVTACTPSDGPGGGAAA
T2 sequence (P41145 whole entry): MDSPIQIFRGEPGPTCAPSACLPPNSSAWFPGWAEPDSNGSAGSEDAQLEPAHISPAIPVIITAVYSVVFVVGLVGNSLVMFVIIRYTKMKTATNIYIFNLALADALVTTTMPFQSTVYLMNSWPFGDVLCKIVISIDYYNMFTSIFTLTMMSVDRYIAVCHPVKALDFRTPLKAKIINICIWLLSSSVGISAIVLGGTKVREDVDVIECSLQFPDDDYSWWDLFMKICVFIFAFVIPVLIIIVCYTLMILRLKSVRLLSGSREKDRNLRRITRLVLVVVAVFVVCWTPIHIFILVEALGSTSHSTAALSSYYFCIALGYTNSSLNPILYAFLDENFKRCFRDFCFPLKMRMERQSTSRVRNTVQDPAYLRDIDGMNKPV

Row | SMILES | Kb [1] [nM] | fold more potent than the compound of formula (II) in GTP-γ-S functional antagonist assay ([1]; versus compound (II) of Table 1, mu, kappa, delta) | Kb [2] [nM] | Kb [3] [nM] | bioavailability [4] [%] | pIC50 ([5]; human liver microsomes, bufuralol substrate, 37° C., 10 minutes) | times less likely to inhibit the cytochrome P450 enzyme system compared to compound (III) ([5]; versus compound (III) of Table 3) | times less likely to cause inhibition of the cytochrome P450 enzyme compared to compound (II) ([5]; versus prior clinical trial candidate compound (II) of Table 3) [times] | inhibition of cumulative food consumed [6] | Kb ([3]; read-out: In Vitro GTPγ-S human opioid receptors Delta (Kb)) [nM]
1 | C[C@H]1CN(CC[C@H](O)C2CCCCC2)CC[C@@]1(C)c1cccc(C(N)=O)c1 (stereo in doubt) [(I), 3-[1-(3-Cyclohexyl-3-hydroxy-propyl)-3,4-dimethyl-piperidin-4-yl]-benzamide] | 0.12 | at least 2 fold | 1.93 | 2.81 | 32 | 4.41 | over 4 times | ~16 | statistically significant inhibition | –
2 | CCCCCCN1CC[C@@](C)(c2cccc(C(N)=O)c2)[C@@H](C)C1 [(II), reference compound] | 0.31 | – | 4.51 | 8.72 | – | – | – | – | – | –
3 | C[C@H]1CN(CC[C@H](O)C2CCCCC2)CC[C@@]1(C)c1cccc(O)c1 [(III)] | – | – | – | – | – | – | – | – | – | 1.19
